For series [1], the system named is HCT116 colon cancer. Also on record: method as in PMID 24247721. The settings on record: HCT116, 72 h treatment; cited from earlier work.
Series [2] relates to MRC-5 cells. In words: Annexin V flow cytometry, early apoptosis. As to conditions: MRC-5, compound at IC50 concentration, 24 h. The format is cell-based. On the procedure:
The eBioscience^TM Annexin V Apoptosis Detection Kit APC (Invitrogen by Thermo Fischer Scientific, Waltham, MA, USA) was used for the assessment of cellular integrity and the externalization of phosphatidylserine. MRC-5 cells were plated in a 6-well flat-bottom plate at a concentration of 2.5 × 10^5 cells per well, grown for 24 h in a humidified atmosphere of 95% air and 5% CO2 at 37 °C in RPMI 1640 medium supplemented with 10% fetal bovine serum (FBS), 100 U/mL penicillin, and 100 μg/mL streptomycin (Gibco™ by Thermo Fischer Scientific CE, Waltham, MA, USA). Each tested compound was added to the cells at IC50 concentration, and the incubation continued for another 24 h under the same conditions. Upon incubation, cells were collected, washed once with Dulbecco’s Phosphate-Buffered Saline (Gibco™ by Thermo Fischer Scientific CE, Waltham, MA, USA), and stained with Annexin V FITC and propidium iodide (PI) under the manufacturer’s instructions. Briefly, MRC-5 cells were resuspended in 1 × Binding Buffer at 1–5 × 10^6 cells per mL and incubated with 5.00 µL Annexin V FITC for 15 min at room temperature in a final volume of 100 μL. […] Immediately after staining, cells were analyzed using a CyFlow Space Partec flow cytometer, with Partec FloMax software (Partec GmbH, Münster, Germany).

In series [3] the test system is HFF (human foreskin fibroblasts) cells. On the set-up: method as in PMID 24247721. The settings on record: cited from earlier work.
In series [4] the test system is juveniles of Radopholus similis. As to conditions: cited from earlier work.
Series [5] deals with Breast cancer MDA-MB-231. The settings on record: cited from earlier work.
Series [6] concerns juvenile Meloidogyne incognita J2. On the set-up: method as in doi:10.3390/agronomy12010041. The settings on record: cited from earlier work.
The test system of series [7] is C. elegans. As to conditions: PG obtained from S. marcescens; cited from earlier work.
Series [8] concerns Meloidogyne javanica. The settings on record: cited from earlier work.
In series [9] the test system is Heterodera schachtii J2. As to conditions: cited from earlier work.
Series [10] relates to C. elegans first stage juveniles. As to conditions: cited from earlier work.
In series [11] the test system is 60-cell-line panel of the National Cancer Institute (NCI). As to conditions: NCI 60-cell-line panel; cited from earlier work.
The test system of series [12] is melanoma cell line A375. Also on record: method as in PMID 16736886. As to conditions: cited from earlier work.
For series [13], the system named is HCT116 (colon cancer). The series is described as follows: MTT antiproliferative assay on HCT116 cells. As to conditions: for IC50: Homo sapiens. The format is cell-based. On the procedure:
Selected cell lines MRC-5 (lung fibroblasts), A549 (lung cancer), A375 (melanoma, skin cancer), MDA-MB-231 (breast cancer), and HCT116 (colon cancer) were obtained from ATCC, Manassas, US. Antiproliferative activities of PG and its Br derivatives were measured using the standard colorimetric MTT [3-(4,5-dimethylthiazol-2-yl)-2,5-diphenyltetrazolium bromide] assay. Briefly, cells were plated in a 96-well flat-bottom plate (Sarstedt, Nümbrecht, Germany) at a concentration of 1 × 10^4 cells per well, grown in a humidified atmosphere of 95% air and 5% CO2 at 37 °C, and maintained as monolayer cultures in RPMI 1640 medium supplemented with 10% fetal bovine serum (FBS), 100 U/mL penicillin, and 100 μg/mL streptomycin (all media components from Gibco™ by Thermo Fischer Scientific CE). Each tested compound was added to the cells at a concentration of 0.05–100.00 μg/mL, and the treatment lasted for 48 h. The MTT assay was performed two times in four replicates, and the results were presented as a percentage of the DMSO-treated control that was arbitrarily set to 100%. Plates were read using the Tecan Infinite 200 Pro multiplate reader (Tecan Group Ltd., Männendorf, Switzerland).
To assess the effect of the treatment duration, exposure of MRC-5 and HCT116 cells to PG and its Br derivatives was observed after 24 h, 48 h, and 72 h and measured using the MTT assay, as described above. MRC-5 and HCT-116 cells treated for 24 h were additionally analyzed using DM IL LED Inverted Microscope (Leica Microsystems, Mannheim, Germany) at 20× magnification.

Series [14] deals with A549. The settings on record: cited from earlier work.

Molecules are shown by their SMILES. In brackets after ≈: the same amount, converted by molar mass. Where two headings read alike, the source gives them in different places.

Consider `CCCCCC1=CC(=Cc2[nH]c(-c3ccc[nH]3)cc2OC)N=C1C` [PG, 4-Methoxy-5-[(5-methyl-4-pentyl-2H-pyrrol-2-ylidene)methyl]-1H,1'H-2,2'-bipyrrole], for which the IC50 in series [1] was 0.04 µg/mL (≈ 0.124 µM); in [3] (72 h of treatment), 0.15 µg/mL (≈ 0.464 µM); in series [6], 200 µg/mL (≈ 618 µM); in [13] (HCT-116, 24 h) it was 5 ± 0.06 µg/mL (≈ 15.5 µM); in series [13] (HCT-116, 48 h) it was 0.7 ± 0.02 µg/mL (≈ 2.16 µM); in [13] (HCT-116, 72 h), 0.8 ± 0.02 µg/mL (≈ 2.47 µM). Further, in series [2], the “Annexin V Positive Cells” value came to 20.3 ± 0.5%. Further, the growth inhibition in [3] (0.36 µg/mL PG) was 76.16%. Further, the LC50 in series [4] is recorded as 83 µg/mL (≈ 257 µM); in [8] it was 79 µg/mL (≈ 244 µM). In addition, the “sensitivity of MDA-MB-231 to PG (lower end of literature range)” value in series [5] is 0.02 µg/mL. Also, the “sensitivity of MDA-MB-231 to PG (upper end of literature range)” value in series [5] was 0.68 µg/mL. Also, the toxicological assessment entry in series [7] is “no significant toxic activity”. In [9], the Effectiveness is 4.30 µg/mL. Further, in series [10], the EC50 was 0.04 µg/mL (≈ 0.124 µM). In [11], the “average LC50” value is given as 0.68 µg/mL. Besides, the “sensitivity of A375 to PG” value in [12] was 0.70 µg/mL. The “selectivity between healthy and cancer cell lines” value in series [13] (MRC-5 vs colon cancer cells (HCT116), 48 h) came to 1.7. Besides, the “anticancer activity against A549 (lower end of literature range)” value in series [14] was 0.03 µg/mL. In addition, the “anticancer activity against A549 (upper end of literature range)” value in series [14] is reported as 3.23 µg/mL.

For the compound `CCCCCC1=C(Br)/C(=C/c2[nH]c(-c3[nH]ccc3Br)cc2OC)N=C1C` [PG-Br2], in series [2], the “Annexin V Positive Cells” value was 19.6 ± 0.6%. In addition, the IC50 came out at 10 ± 0.08 µg/mL (≈ 20.8 µM) in [13] (HCT-116, HCT116, 48 h treatment, read-out: IC50); 50 ± 0.09 µg/mL (≈ 104 µM) in [13] (HCT-116, HCT116, exposure time 24 h, read-out: IC50); 10 ± 0.05 µg/mL (≈ 20.8 µM) in [13] (HCT-116, HCT116, exposure time 72 h, read-out: IC50).
